Results from patent US20130283404A1, “EPIGENETICS IN AUTOIMMUNITY” (The Regents of the University of Michigan, priority 2012, published 2013).

Columns and labels:
Format in all cases: cell-based, human
[1] = tested on: CXCR3 regulatory elements; test: Methylcytosine affinity purification (MeCAP) of CXCR3 regulatory region in CD4+ T cells; conditions: CD4+ T cells from women
Method: (§1) Genomic DNA from isolated CD4+ T cells (˜3×10^6), was extracted using Qiagen DNeasy Blood & Tissue Kit. 3-5 μg isolated DNA was sonicated to average of ˜500 bp with a Covaris DNA shearing system at UM sequencing core. Fragments were size-evaluated using an Agilent 2100 Bioanalyzer. Approximately 400 ng sonicated DNA was subjected to MeCAP experiments using Active Motif METHYLCOLLECTOR Ultra Kit according to the manufacturer's instructions. DNA fragments from the methylation-enriched fraction were purified using QIAquick PCR Purification Kit (Qiagen). MeCAP enriched and reference input samples were quantitated using quantitative real time PCR(RT-qPCR) with primers designed for specific regions flanking the putative transcription start site of the gene promoters. Differentially methylated regions between patient and normal healthy controls were identified by comparing % enrichment (relative to input) of the 500 bp window of methylated fragments.
(§2) The overexpression of OGT and CXCR3 in 5-azaC treated CD4+ T cells from women relative to men is consistent with demethylation of regulatory regions on their silenced X chromosome. […]

X chromosome MicroRNA = test: Genome-wide qPCR miRNA expression profiling of 5-azaC treated CD4+ T cells; conditions: 72 hrs; for LET-7f-2 Fold change (5AzaC/No 5Aza): table line 4
Method: (§3) For in vitro demethylation assay, isolated CD4+ cells were cultured with 5 μM 5-AzaC for 72 hours. The cells were then treated (restimulated) or not with 5 ng/ml PMA and 500 ng/ml ionomycin or not for an additional 6 hr, and CD4+ cells were recovered and washed 2 times with PBS. Total RNA including miRNAs was isolated using miRNeasy kit (Qiagen) for miRNA and mRNA expression analysis. Genomic DNA was isolated using Qiagen DNeasy Blood & Tissue Kit. (Hewagama, 2009; Lu, 2007; Quddus, 1993; herein incorporated by reference in their entireties).
Genome-wide qPCR miRNA expression profiling was performed using (System Biosciences (SBI), Cat# RA660A-1) profiler. Briefly, 800 ng totals RNA containing miRNA was converted to complementary DNA with the QuantiMir kit, according to the manufacturer protocol. Real time PCR in 384 well format using miRNA-specific primers was performed using ABI 7900 real-time PCR system at University of Michigan microarray or sequencing core facilities. Resulting data was analyzed by using Human miRNome profiler software provided by SBI.
To identify methylation sensitive […], miRNA expression profiles were compared between 5-AzaC treated CD4+ cells and non-treated controls from healthy men and women. Differentially expressed miRNAs were identified. Then the X chromosome encoded miRNA's increased by 5-azaC in women, compared to men were identified.
Experiments were conducted during the development of embodiments of the present invention to identify X-linked miRNA's increasing more in experimentally demethylated T cells from women than men and also overexpressed in women relative to men with active lupus. The human X chromosome encodes 128 miRNA while the Y chromosome encodes only 15 (Ensembl release 65—December 2011 © WTSI/EBI WTSI/EBI). PBMC from the peripheral blood of healthy men and healthy women ages 23-35 were stimulated with PHA and treated with 5-azaC as before. 72 hrs later CD4+ T cells were purified and miRNA's surveyed using PCR arrays detecting 80 X chromosome and 824 autosomal miRNAs but no Y miRNA's.

OGT regulatory elements = test: Methylcytosine affinity purification (MeCAP) of OGT regulatory region in CD4+ T cells; conditions: CD4+ T cells from women but not men
Method: as §1, §2

[2] = tested on: miR-98/Let 7-f2 gene cluster; test: Methylation of regulatory regions 5' to the miR-98/Let 7-f2 gene cluster in CD4+ T cells; conditions: T cells from women but not men
Method: as §1
Methylation of potential regulatory regions 5′ to the miR-98/Let 7-f2 gene cluster was compared in experimentally demethylated CD4 ? T cells from women relative to men, and in CD4 ? T cells from women with active lupus.

CXCR3 [3] = test: CXCR3 mRNA by RT-PCR in 5-azaC treated CD4+ T cells; conditions: 72 hours, restimulated with PMA and ionomycin, more in women than in men
Method: as §3
(§4) Up to 1000 ng total RNA from CD4+ T cells was transcribed into cDNA using Transcriptor First Strand cDNA synthesis kit (Roche) according to the manufacture's instruction. The cDNA was then subjected to real-time PCR using a Rotor-Gene 3000 thermocycler (Corbett). Roche (Basle) FastStart universal SYBR green master (Roche) mix containing 1 μl template cDNA and 0.5 μM forward and reverse primers in a total volume of 20 μl was annealed at 56° C. for a total of 40 cycles. The fold change of expression was calculated using ACTB and 18sRNA as internal reference genes.
(§5) The sex-specific differences in gene expression were confirmed in experimentally demethylated CD4+ T cells from an additional 9 pairs of healthy men and women. […] CD4+ T cells were then purified using magnetic beads, RNA isolated, and OGT and CXCR3 mRNA levels quantitated by RT-PCR. […]

CXCR3 [4] = test: CXCR3 protein by immunoblotting and flow cytometry on 5-azaC treated CD4+ T cells; conditions: for CXCR3 MFI: mean±SEM
Method: (§6) CD4 ? T cell CXCR3 levels were measured by flow cytometry using antibodies from Santa Cruz Biotechnology. OGT was measured by solubilizing bead-purified CD4 ? T cells, fractionating the lysates by electrophoresis, transferring the proteins to nitrocellulose membranes, then probing with anti-OGT antibodies (Abcam). CBL protein levels were measured by immunoblotting with anti-CBL antibody (BD Biosciences) and approaches similar to OGT. Protein bands were visualized using an ECL chemiluminescence detection system, then scanned and quantified with ImageQuant 5.2 software. Values were normalized to b-actin and levels expressed relative to non-stimulated CD4 ? T cells. (Basu, 2009; Lu, 2007, Gorelik, 2012; herein incorporated by reference in their entireties).
CXCR3 protein levels were similarly compared on 5-azaC treated CD4+ T cells with and without restimulation using immunoblotting and flow cytometry. In contrast to OGT, using untreated and 5-azaC treated CD4+ T cells from male-female pairs, no increase in CXCR3 protein was observed (CXCR3MFI: female 320+91, male 316+108, mean±SEM) despite the increase in CXCR3 mRNA in the women.

OGT [5] = test: OGT protein by immunoblotting in 5-azaC treated CD4+ T cells; conditions: CD4+ T cells from women but not men, 72 h
Method: as §6
PBMC from N healthy men and women were stimulated with PHA, treated with 5-azaC, and 72 hours later restimulated with PMA and ionomycin as for an additional 6 hours as before. CD4+ T cells were isolated and OGT levels compared by immunoblotting.

OGT [6] = test: OGT mRNA by RT-PCR in 5-azaC treated CD4+ T cells; conditions: 72 hours, restimulated with PMA and ionomycin, more in women than in men
Method: as §3, §4, §5

## Nc1ncn([C@@H]2O[C@H](CO)[C@@H](O)[C@H]2O)c(=O)n1 [5-azaC]
[1]
  methylation of region −1567 to −1067 5′ to the CXCR3 transcription start site: significant decrease
X chromosome MicroRNA; Female CD4+ T cells
  MIR-98 Fold change (5AzaC/No 5Aza): 1.7 ± 0.2
  MIR-106a Fold change (5AzaC/No 5Aza): 5.2 ± 1.5
  MIR-188(3p) Fold change (5AzaC/No 5Aza): 12.7 ± 3.0
  MIR-421 Fold change (5AzaC/No 5Aza): 17.4 ± 5.0
  MIR-424 Fold change (5AzaC/No 5Aza): 2.2 ± 0.5
  MIR-450a Fold change (5AzaC/No 5Aza): 2.4 ± 0.7
  MIR-450b Fold change (5AzaC/No 5Aza): 14.3 ± 4.4
  MIR-503 Fold change (5AzaC/No 5Aza): 14.3 ± 4.4
  MIR-508(3p) Fold change (5AzaC/No 5Aza): 4.2 ± 1.1
  LET-7f-2 Fold change (5AzaC/No 5Aza): 3.8 ± 1.2
X chromosome MicroRNA; Male CD4+ T cells
  MIR-98 Fold change (5AzaC/No 5Aza): 1.4 ± 0.2
  MIR-106a Fold change (5AzaC/No 5Aza): 1.1 ± 0.4
  MIR-188(3p) Fold change (5AzaC/No 5Aza): 4.1 ± 2.1
  MIR-421 Fold change (5AzaC/No 5Aza): 7.8 ± 3.7
  MIR-424 Fold change (5AzaC/No 5Aza): 1.1 ± 0.3
  MIR-450a Fold change (5AzaC/No 5Aza): 1.1 ± 0.8
  MIR-450b Fold change (5AzaC/No 5Aza): 3.8 ± 1.8
  MIR-503 Fold change (5AzaC/No 5Aza): 3.8 ± 1.8
  MIR-508(3p) Fold change (5AzaC/No 5Aza): 1.1 ± 1.3
  LET-7f-2 Fold change (5AzaC/No 5Aza): 0.5 ± 0.2
OGT regulatory elements
  methylation of region −412 to −88 5′ to OGT transcription start site: significant demethylation
[2]
  methylation of regulatory regions 5′ to the miR-98/Let 7-f2 gene cluster: significantly demethylates
CXCR3 [3]
  CXCR3 transcripts: increases
CXCR3 [4]; female CD4+ T cells
  CXCR3 MFI: 320+91
CXCR3 [4]; male CD4+ T cells
  CXCR3 MFI: 316+108
CXCR3 [4]; untreated and 5-azaC treated CD4+ T cells from male-female pairs
  CXCR3 protein: no increase
OGT [5]
  OGT protein: increases
OGT [6]
  OGT transcripts: increases
